Key:
SW-620 = assay: NCI60 five-dose screen; type: cell-based; details: Homo sapiens, SW-620, colon cancer; for CC50: read-out: LC50 (the source's name)
NCI-H226 = assay: NCI60 five-dose screen; type: cell-based; details: Homo sapiens, NCI-H226, NSC lung cancer; for CC50: read-out: LC50 (the source's name)
A498 = assay: NCI60 five-dose screen; type: cell-based; details: Homo sapiens, A498, renal cancer; for CC50: read-out: LC50 (the source's name)
T-47D = assay: NCI60 five-dose screen; type: cell-based; details: Homo sapiens, T47D, breast cancer; for CC50: read-out: LC50 (the source's name)
Human CYP19 (aromatase) = biological target: T1, Human CYP19 (aromatase) (Homo sapiens, UniProt P11511); assay: Aromatase inhibition assay (DBF fluorometric substrate); type: biochemical; details: active defined as IC50 < 12.5 µM
T1 construct: purchased GENTEST, Woburn, MA 456260; host or cells: baculovirus/insect cells
T1 sequence (P11511 1-503): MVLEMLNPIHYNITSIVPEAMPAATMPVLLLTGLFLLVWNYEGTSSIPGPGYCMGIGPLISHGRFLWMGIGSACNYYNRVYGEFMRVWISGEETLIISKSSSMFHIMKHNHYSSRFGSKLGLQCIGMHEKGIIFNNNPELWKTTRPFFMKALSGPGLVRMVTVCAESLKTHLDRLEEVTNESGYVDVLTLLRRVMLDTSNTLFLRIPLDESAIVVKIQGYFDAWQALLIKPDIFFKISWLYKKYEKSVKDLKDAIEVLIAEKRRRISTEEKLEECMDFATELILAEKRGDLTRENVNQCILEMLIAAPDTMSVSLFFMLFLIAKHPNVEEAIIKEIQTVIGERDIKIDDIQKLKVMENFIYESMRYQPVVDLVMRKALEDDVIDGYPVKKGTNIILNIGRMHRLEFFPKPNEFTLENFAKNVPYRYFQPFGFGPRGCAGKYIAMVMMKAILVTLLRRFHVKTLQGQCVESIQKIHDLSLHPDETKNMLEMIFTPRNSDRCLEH
Outline: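 Insect-cell-expressed human CYP19 Supersomes with oxidoreductase turned over DBF for 30 min at 37 °C after a 10 min 37 °C pre-incubation with cofactor. NaOH quench; product measured by fluorescence, excitation 490 nm, emission 530 nm.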

MDA-MB-468 = assay: NCI60 five-dose screen; type: cell-based; details: Homo sapiens, MDA-MB-468, breast cancer; for CC50: read-out: LC50 (the source's name)
HCT-116 = assay: NCI60 five-dose screen; type: cell-based; details: Homo sapiens, HCT-116, colon cancer; for CC50: read-out: LC50 (the source's name)
KM12 = assay: NCI60 five-dose screen; type: cell-based; details: Homo sapiens, KM12, colon cancer; for CC50: read-out: LC50 (the source's name)
OVCAR-5 = assay: NCI60 five-dose screen; type: cell-based; details: Homo sapiens, OVCAR-5, ovarian cancer; for CC50: read-out: LC50 (the source's name)
NCI-H322M = assay: NCI60 five-dose screen; type: cell-based; details: Homo sapiens, NSC lung cancer; for CC50: read-out: LC50 (the source's name)
RXF 393 = assay: NCI60 five-dose screen; type: cell-based; details: Homo sapiens, RXF 393, renal cancer; for CC50: read-out: LC50 (the source's name)
MOLT-4 = assay: NCI60 five-dose screen; type: cell-based; details: Homo sapiens, MOLT-4, leukemia; for CC50: read-out: LC50 (the source's name)
HS 578T = assay: NCI60 five-dose screen; type: cell-based; details: Homo sapiens, breast cancer; for CC50: read-out: LC50 (the source's name)
MDA-MB-435 = assay: NCI60 five-dose screen; type: cell-based, human; details: Homo sapiens; for GI50: MDA-MB-435, melanoma; for CC50: MDA-MB-435, MDA-MB-435, melanoma, read-out: LC50 (the source's name)
SF-268 = assay: NCI60 five-dose screen; type: cell-based; details: Homo sapiens, SF-268, CNS cancer; for CC50: read-out: LC50 (the source's name)
786-0 = assay: NCI60 five-dose screen; type: cell-based; details: Homo sapiens, 786-0, renal cancer; for CC50: read-out: LC50 (the source's name)
M14 = assay: NCI60 five-dose screen; type: cell-based; details: Homo sapiens, M14, melanoma; for CC50: read-out: LC50 (the source's name)
HCC-2998 = assay: NCI60 five-dose screen; type: cell-based; details: Homo sapiens, HCC-2998, colon cancer; for CC50: read-out: LC50 (the source's name)
[1] = Cytotoxicity MTT assay, L929; type: cell-based, mouse; details: mouse, L929 fibroblast cells; MTT, 48 hours
Procedure: (§1) T47D (ATCC HTB-133) was purchased from Biomedia (Thailand) Co., LTD. L929 (ATCC CCL-1) was received as a gift from Prof. Tanapat Palaga, Department of Microbiology, Faculty of Science, Chulalongkorn University, Bangkok, Thailand. The cells were cultured in Dulbecco's Modified Eagle's Medium (DMEM; Gibco) supplemented with 10% fetal bovine serum (FBS; HyClone), 100 U mL^−1 penicillin and 100 µg mL^−1 streptomycin (Gibco) at 37 °C with 5% CO2.
(§2) The antiproliferative activity was determined by MTT assay. Briefly, the cells were plated into a 96-well microplate at the density of 10 000 cells per well. The cells were allowed to grow overnight before treated with the solutions of compounds in culture medium at the designated concentrations for 48 hours. The medium was then replaced with MTT solution (0.5 mg mL^−1 MTT in culture medium) and incubated for 3 hours. A 100 µL of DMSO was used to dissolve the produced formazan. Absorbance at 570 nm was then measured using a microplate reader (Varioskan™ LUX multimode microplate reader, Thermo Scientific™). Percent viability was calculated relative to the vehicle control (DMSO).

[2] = system: L929 normal mouse fibroblast cell line; assay: Cytotoxicity MTT assay, L929; type: cell-based; details: for Selectivity index (SI): IC50 (L929)/IC50 (T47D)
Procedure: as §1, §2

[3] = system: T47D breast cancer cell line; assay: Cytotoxicity MTT assay, T47D; type: cell-based, human; details: Homo sapiens, T47D; MTT, 48 hours
Outline: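 MTT read-out after 48 h compound exposure: 0.5 mg/mL MTT for 3 h, DMSO-solubilised formazan read at 570 nm and expressed relative to vehicle. Cells, T47D or L929 in DMEM with 10% FBS at 37 °C/5% CO2, were plated at 10 000 per well the night before.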

UO-31 = assay: NCI60 five-dose screen; type: cell-based; details: Homo sapiens, UO-31, renal cancer

| Structure (SMILES) | GI50 (SW-620) | CC50 (SW-620) | GI50 (NCI-H226) | CC50 (NCI-H226) | GI50 (A498) | CC50 (A498) | GI50 (T-47D) | CC50 (T-47D) | IC50 (Human CYP19 (aromatase)) | GI50 (MDA-MB-468) | CC50 (MDA-MB-468) | GI50 (HCT-116) | CC50 (HCT-116) | GI50 (KM12) | CC50 (KM12) | GI50 (OVCAR-5) | CC50 (OVCAR-5) | GI50 (NCI-H322M) | CC50 (NCI-H322M) | GI50 (RXF 393) | further results |
| --- | --- | --- | --- | --- | --- | --- | --- | --- | --- | --- | --- | --- | --- | --- | --- | --- | --- | --- | --- | --- | --- |
| O=C(N/N=C/c1cc(Cl)c[nH]1)c1[nH]c2ccc(Br)cc2c1-c1ccccc1 [Derivative 3h, (E)-5-Bromo-N′-((4-chloro-1H-pyrrol-2-yl)methylene)-3-phenyl-1H-indole-2-carbohydrazide] | 0.328 µM | 80.9 µM | 0.604 µM | > 100 µM | 1.45 µM | 42.1 µM | 0.546 µM | 92.6 µM | 1.8 ± 0.4 µM | 0.251 µM | 27.8 µM | 0.331 µM | 29.1 µM | 0.328 µM | 20.7 µM | 0.473 µM | 36 µM | 0.768 µM | 92.3 µM | 0.219 µM | CC50 (RXF 393): 34.3 µM; GI50 (MOLT-4): 0.283 µM; GI50 (HS 578T): 0.284 µM; CC50 (HS 578T): > 100 µM; GI50 (MDA-MB-435): 0.185 µM; GI50 (SF-268): 0.388 µM; CC50 (SF-268): 77.3 µM; GI50 (786-0): 0.459 µM; CC50 (786-0): 39.8 µM; GI50 (M14): 0.305 µM; CC50 (M14): 50.3 µM; GI50 (HCC-2998): 0.224 µM; CC50 (HCC-2998): 4.2 µM; IC50 at 48 h [1]: 53.7 ± 30.4 µM; Selectivity index (SI) [2]: 22.4; IC50 [3]: 2.4 ± 1.8 µM |
| CCOC(=O)c1ccc(/C=N/NC(=O)c2[nH]c3ccc(Br)cc3c2-c2ccccc2)[nH]1 [Derivative 3i, Ethyl (E)-5-((2-(5-bromo-3-phenyl-1H-indole-2-carbonyl)hydrazono)methyl)-1H-pyrrole-2-carboxylate] | 3.93 µM | 53.6 µM | 3.13 µM | 45.4 µM | 10.5 µM | 55.2 µM | 4.2 µM | > 100 µM | 2.6 ± 0.8 µM | 1.63 µM | 36.6 µM | 3.24 µM | > 100 µM | 2.22 µM | 38 µM | 3.43 µM | 38 µM | 3.3 µM | > 100 µM | 1.69 µM | GI50 (UO-31): 1.48 µM; CC50 (UO-31; read-out: LC50 (the source's name)): > 100 µM; CC50 (RXF 393): 66.4 µM; GI50 (MOLT-4): 2.49 µM; CC50 (MOLT-4): > 100 µM; GI50 (HS 578T): 1.21 µM; CC50 (HS 578T): > 100 µM; CC50 (MDA-MB-435): 27.6 µM; GI50 (MDA-MB-435): 0.464 µM; GI50 (SF-268): 2.68 µM; CC50 (SF-268): > 100 µM; GI50 (786-0): 4.48 µM; CC50 (786-0): > 100 µM; GI50 (M14): 2.73 µM; CC50 (M14): 71.9 µM; GI50 (HCC-2998): 2.51 µM; CC50 (HCC-2998): 36.4 µM; L929 cell survival ([2]; 50 µM single concentration): > 80%; L929 toxicity at single concentration ([2]; 50 µM single concentration): — ^c (No toxicity observed at 50 µM single concentration (>80% cell survival).); IC50 [3]: 11.8 ± 1.4 µM |
| CCOC(=O)c1c[nH]c(/C=N/NC(=O)c2[nH]c3ccc(Br)cc3c2-c2ccccc2)c1 [Derivative 3j, Ethyl (E)-5-((2-(5-bromo-3-phenyl-1H-indole-2-carbonyl)hydrazono)methyl)-1H-pyrrole-3-carboxylate] | 3.36 µM | 76.2 µM | 3.07 µM | 41.3 µM | 3.53 µM | 43.4 µM | 2.91 µM | 86.9 µM | 1.3 ± 0.4 µM | 2.47 µM | 24.2 µM | 2.95 µM | 45.6 µM | 2.21 µM | 33.9 µM | 3.87 µM | 42.9 µM | 5.63 µM | 50 µM | 1.36 µM | CC50 (RXF 393): 22 µM; GI50 (MOLT-4): 2.1 µM; CC50 (MOLT-4): 53.4 µM; GI50 (HS 578T): 2.36 µM; CC50 (HS 578T): > 100 µM; CC50 (MDA-MB-435): 16.1 µM; GI50 (MDA-MB-435): 1.09 µM; GI50 (SF-268): 2.29 µM; CC50 (SF-268): 46.3 µM; GI50 (786-0): 3.29 µM; CC50 (786-0): 44.7 µM; GI50 (M14): 2.39 µM; CC50 (M14): 50.3 µM; GI50 (HCC-2998): 2.18 µM; CC50 (HCC-2998): 15.9 µM; IC50 at 48 h [1]: 12.2 ± 1 µM; Selectivity index (SI) [2]: 1.17; IC50 [3]: 10.4 ± 2.9 µM |

From article PMC12203311, “Design, synthesis, in silico and in vitro evaluation of pyrrole–indole hybrids as dual tubulin and aromatase inhibitors with potent anticancer activities” (RSC Advances, 2025)
